Data as given in US9801961B2, “2-phenylimidazo[1,2-a]pyrimidines as imaging agents” (Hoffmann-La Roche Inc., priority 2013, dated 2017).

These compounds were tested on native tau aggregates (assay: TAU radioligand in vitro displacement assay ([3H]T808 autoradiography on human AD brain sections)). Conditions: compound 10 nM, radioligand [3H]T808 10 nM, 50 mM Tris pH 7.4, room temperature, 30 min.
Assay type: binding
How it was run: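 Human AD brain cryosections (10 μm) co-incubated with [3H]T808 (10 nM) and test compound at various concentrations in 50 mM Tris pH 7.4, 30 min at room temperature, then washed at 4° C. Autoradiography after 5-day plate exposure. % displacement from ROI specific binding, white-matter signal subtracted as non-specific; cold T808 internal control.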

SMILES	% displacement of [3H]T808 (10 nM) at 10 nM [%]
CNc1ccn2cc(-c3cccc(OCCCF)c3)nc2n1 [Example 130, 2-(3-(3-Fluoropropoxy)phenyl)-N-methylimidazo[1,2-a]pyrimidin-7-amine]	12
CNc1ccn2cc(-c3cccc(OCF)c3)nc2n1 [Example 131, 2-(3-(Fluoromethoxy)phenyl)-N-methylimidazo[1,2-a]pyrimidin-7-amine]	33
CNc1ccn2cc(-c3ccc(OCF)cc3)nc2n1 [Example 132, 2-(4-(Fluoromethoxy)phenyl)-N-methylimidazo[1,2-a]pyrimidin-7-amine]	36
Oc1cccc(-c2cn3ccc(NC4CC4)nc3n2)c1 [Example 133, 3-(7-(Cyclopropylamino)imidazo[1,2-a]pyrimidin-2-yl)phenol]	14
FCCOc1cccc(-c2cn3ccc(NC4CC4)nc3n2)c1 [Example 134, N-Cyclopropyl-2-(3-(2-fluoroethoxy)phenyl)imidazo[1,2-a]pyrimidin-7-amine]	6
CN(C)c1ccn2cc(-c3ccc(CO)cc3)nc2n1 [Example 135, [4-[7-(Dimethylamino)imidazo[1,2-a]pyrimidin-2-yl]phenyl]methanol acetic acid adduct]	18
CNc1ccn2cc(-c3ccc(C(=O)OC)cc3)nc2n1 [Example 136, Methyl 4-[7-(methylamino)imidazo[1,2-a]pyrimidin-2-yl]benzoate]	27
FCOc1cccc(-c2cn3ccc(NC4CC4)nc3n2)c1 [Example 137, N-Cyclopropyl-2-(3-(fluoromethoxy)phenyl)imidazo[1,2-a]pyrimidin-7-amine]	18
FCCOc1ccc(-c2cn3ccc(NC4CC4)nc3n2)cc1 [Example 138, N-Cyclopropyl-2-(4-(2-fluoroethoxy)phenyl)imidazo[1,2-a]pyrimidin-7-amine]	20
FCCCOc1ccc(-c2cn3ccc(NC4CC4)nc3n2)cc1 [Example 139, N-Cyclopropyl-2-(4-(3-fluoropropoxy)phenyl)imidazo[1,2-a]pyrimidin-7-amine]	22
FCOc1ccc(-c2cn3ccc(NC4CC4)nc3n2)cc1 [Example 140, N-Cyclopropyl-2-(4-(fluoromethoxy)phenyl)imidazo[1,2-a]pyrimidin-7-amine]	11
CNc1ccn2cc(-c3ccc(SC)cc3)nc2n1 [Example 141, N-Methyl-2-(4-(methylthio)phenyl)imidazo[1,2-a]pyrimidin-7-amine]	34
CNc1ccn2cc(-c3ccc(OC)c(OC)c3)nc2n1 [Example 142, 2-(3,4-Dimethoxyphenyl)-N-methylimidazo[1,2-a]pyrimidin-7-amine]	21
CNc1ccn2cc(-c3ccc(C)c(OC)c3)nc2n1 [Example 143, 2-(3-Methoxy-4-methylphenyl)-N-methylimidazo[1,2-a]pyrimidin-7-amine]	21
CNc1ccn2cc(-c3cc(OC)cc(OC)c3)nc2n1 [Example 144, 2-(3,5-Dimethoxyphenyl)-N-methylimidazo[1,2-a]pyrimidin-7-amine]	14
